Test results as given in ChEMBL document CHEMBL1275577, “Study of the in vitro activities of rifaximin and comparator agents against 536 anaerobic intestinal bacteria from the perspective of potential utility in pathology involving bowel flora” (Antimicrob Agents Chemother, 2009).

Tests used:
[1] = test system: Parabacteroides distasonis; assay: Antimicrobial activity against Parabacteroides distasonis by Wadsworth agar dilution method in presence of beta-lactamase inhibitor Sulbactam; type: functional
Bacteroides ovatus = assay: Antimicrobial activity against Bacteroides ovatus by Wadsworth agar dilution method in presence of beta-lactamase inhibitor Sulbactam; type: functional
Desulfovibrio vulgaris = assay: Antimicrobial activity against Desulfovibrio vulgaris by Wadsworth agar dilution method in presence of beta-lactamase inhibitor Sulbactam; type: functional; details: Nitratidesulfovibrio vulgaris
Fusobacterium sp. [2] = assay: Antimicrobial activity against Fusobacterium sp. by Wadsworth agar dilution method in presence of beta-lactamase inhibitor Sulbactam; type: functional
[3] = test system: Enterocloster clostridioformis; assay: Antimicrobial activity against Clostridium clostridioforme by Wadsworth agar dilution method in presence of beta-lactamase inhibitor Sulbactam; type: functional
Clostridium bartlettii = assay: Antimicrobial activity against Clostridium bartlettii by Wadsworth agar dilution method in presence of beta-lactamase inhibitor Sulbactam; type: functional; details: Intestinibacter bartlettii
[4] = test system: Paraclostridium bifermentans; assay: Antimicrobial activity against Clostridium bifermentans by Wadsworth agar dilution method in presence of beta-lactamase inhibitor Sulbactam; type: functional
Clostridium cadaveris [5] = assay: Antimicrobial activity against Clostridium cadaveris by Wadsworth agar dilution method in presence of beta-lactamase inhibitor Sulbactam; type: functional
[6] = test system: Clostridium lactatifermentans; assay: Antimicrobial activity against Clostridium lactatifermentans by Wadsworth agar dilution method in presence of beta-lactamase inhibitor Sulbactam; type: functional; details: Anaerotignum lactatifermentans
Bifidobacterium bifidum [7] = assay: Antimicrobial activity against Bifidobacterium bifidum by Wadsworth agar dilution method in presence of beta-lactamase inhibitor Sulbactam; type: functional
Bifidobacterium dentium = assay: Antimicrobial activity against Bifidobacterium dentium by Wadsworth agar dilution method in presence of beta-lactamase inhibitor Sulbactam; type: functional
[8] = Antimicrobial activity against Bifidobacterium infantis by Wadsworth agar dilution method in presence of beta-lactamase inhibitor Sulbactam; type: functional, Bifidobacterium longum subsp. infantis; details: Bifidobacterium longum
Bifidobacterium longum = assay: Antimicrobial activity against Bifidobacterium longum by Wadsworth agar dilution method in presence of beta-lactamase inhibitor Sulbactam; type: functional
[9] = test system: Catenibacterium mitsuokai; assay: Antimicrobial activity against Catenibacterium mitsuokai by Wadsworth agar dilution method in presence of beta-lactamase inhibitor Sulbactam; type: functional
[10] = test system: Coprobacillus cateniformis; assay: Antimicrobial activity against Coprobacillus cateniformis by Wadsworth agar dilution method in presence of beta-lactamase inhibitor Sulbactam; type: functional
Eubacterium saburreum = assay: Antimicrobial activity against Eubacterium saburreum by Wadsworth agar dilution method in presence of beta-lactamase inhibitor Sulbactam; type: functional; details: Lachnoanaerobaculum saburreum
Lactobacillus sp. = assay: Antimicrobial activity against Lactobacillus sp. by Wadsworth agar dilution method in presence of beta-lactamase inhibitor Sulbactam; type: functional
Propionibacterium avidum = assay: Antimicrobial activity against Propionibacterium avidum by Wadsworth agar dilution method in presence of beta-lactamase inhibitor Sulbactam; type: functional; details: Cutibacterium avidum
[11] = test system: Ruminococcus flavefaciens; assay: Antimicrobial activity against Ruminococcus flavefaciens by Wadsworth agar dilution method in presence of beta-lactamase inhibitor Sulbactam; type: functional
Desulfovibrio piger = assay: Antimicrobial activity against Desulfovibrio piger by Wadsworth agar dilution method; type: functional
Fusobacterium sp. [12] = assay: Antimicrobial activity against Fusobacterium sp. by Wadsworth agar dilution method; type: functional
Porphyromonas uenonis = assay: Antimicrobial activity against Porphyromonas uenonis by Wadsworth agar dilution method; type: functional
[13] = test system: Enterocloster clostridioformis; assay: Antimicrobial activity against Clostridium clostridioforme by Wadsworth agar dilution method; type: functional
Clostridium hathewayi = assay: Antimicrobial activity against Clostridium hathewayi by Wadsworth agar dilution method; type: functional; details: Hungatella hathewayi
Clostridium perfringens = assay: Antimicrobial activity against Clostridium perfringens by Wadsworth agar dilution method; type: functional
Clostridium bolteae = assay: Antimicrobial activity against Clostridium bolteae by Wadsworth agar dilution method; type: functional; details: Enterocloster bolteae
Clostridium cadaveris [14] = assay: Antimicrobial activity against Clostridium cadaveris by Wadsworth agar dilution method; type: functional
Clostridium cocleatum = assay: Antimicrobial activity against Clostridium cocleatum by Wadsworth agar dilution method; type: functional; details: Thomasclavelia cocleata
Clostridium disporicum = assay: Antimicrobial activity against Clostridium disporicum by Wadsworth agar dilution method; type: functional
Clostridium nexile = assay: Antimicrobial activity against Clostridium nexile by Wadsworth agar dilution method; type: functional; details: Faecalimonas nexilis
[15] = test system: Paeniclostridium sordellii; assay: Antimicrobial activity against Clostridium sordellii by Wadsworth agar dilution method; type: functional; details: Paraclostridium sordellii
[16] = test system: Bifidobacterium adolescentis; assay: Antimicrobial activity against Bifidobacterium adolescentis by Wadsworth agar dilution method; type: functional
Bifidobacterium bifidum [17] = assay: Antimicrobial activity against Bifidobacterium bifidum by Wadsworth agar dilution method; type: functional
Eubacterium biforme = assay: Antimicrobial activity against Eubacterium biforme by Wadsworth agar dilution method; type: functional; details: Holdemanella biformis
Eubacterium callanderi = assay: Antimicrobial activity against Eubacterium callanderi by Wadsworth agar dilution method; type: functional
[18] = test system: Limosilactobacillus fermentum; assay: Antimicrobial activity against Lactobacillus fermentum by Wadsworth agar dilution method; type: functional
[19] = test system: Lacticaseibacillus rhamnosus; assay: Antimicrobial activity against Lactobacillus rhamnosus by Wadsworth agar dilution method; type: functional
Finegoldia magna = assay: Antimicrobial activity against Finegoldia magna by Wadsworth agar dilution method; type: functional
Parvimonas micra = assay: Antimicrobial activity against Peptostreptococcus micros by Wadsworth agar dilution method; type: functional

CC1(C)S[C@@H]2[C@H](NC(=O)[C@H](N)c3ccccc3)C(=O)N2[C@H]1C(=O)O [AMPICILLIN]
32 µg/mL: MIC90 [1] | MIC90 (Bacteroides ovatus) | MIC90 (Desulfovibrio vulgaris)
8 µg/mL: MIC50 (Bacteroides ovatus)
0.25 µg/mL: MIC (Clostridium bartlettii) | MIC50 (Clostridium bartlettii) | MIC [4] | MIC50 [4] | MIC (Clostridium cadaveris [5]) | MIC50 (Clostridium cadaveris [5]) | MIC [6] | MIC50 [6] | MIC (Bifidobacterium bifidum [7]) | MIC50 (Bifidobacterium bifidum [7]) | MIC (Bifidobacterium dentium) | MIC50 (Bifidobacterium dentium) | MIC [8] | MIC50 [8] | MIC (Bifidobacterium longum) | MIC50 (Bifidobacterium longum) | MIC [9] | MIC50 [9] | MIC [10] | MIC50 [10] | MIC (Eubacterium saburreum) | MIC50 (Eubacterium saburreum) | MIC (Lactobacillus sp.) | MIC50 (Lactobacillus sp.) | MIC (Propionibacterium avidum) | MIC50 (Propionibacterium avidum) | MIC [11] | MIC50 [11]
1 µg/mL: MIC50 (Fusobacterium sp. [2]) | MIC [3] | MIC50 [3] | MIC90 (Clostridium bartlettii) | MIC90 [4] | MIC90 (Clostridium cadaveris [5]) | MIC90 [6]
4 µg/mL: MIC50 (Desulfovibrio vulgaris) | MIC90 (Fusobacterium sp. [2])
2 µg/mL: MIC90 (Bifidobacterium bifidum [7]) | MIC90 (Bifidobacterium dentium) | MIC90 [8] | MIC90 (Bifidobacterium longum) | MIC90 [9] | MIC90 [10] | MIC90 (Eubacterium saburreum) | MIC90 (Lactobacillus sp.) | MIC90 (Propionibacterium avidum) | MIC90 [11]
16 µg/mL: MIC50 [1] | MIC90 [3]

CN[C@H](CC(C)C)C(=O)N[C@H]1C(=O)N[C@@H](CC(N)=O)C(=O)N[C@H]2C(=O)N[C@H]3C(=O)N[C@H](C(=O)N[C@H](C(=O)O)c4cc(O)cc(O)c4-c4cc3ccc4O)[C@H](O)c3ccc(c(Cl)c3)Oc3cc2cc(c3O[C@@H]2O[C@H](CO)[C@@H](O)[C@H](O)[C@H]2O[C@H]2C[C@](C)(N)[C@H](O)[C@H](C)O2)Oc2ccc(cc2Cl)[C@H]1O [VANCOMYCIN]
256 µg/mL: MIC50 (Fusobacterium sp. [12])
1 µg/mL: MIC50 (Clostridium hathewayi) | MIC90 (Clostridium hathewayi) | MIC50 (Clostridium perfringens) | MIC90 (Clostridium perfringens) | MIC50 (Clostridium bolteae) | MIC50 (Clostridium cadaveris [14]) | MIC50 (Clostridium cocleatum) | MIC50 (Clostridium disporicum) | MIC50 (Clostridium nexile) | MIC50 [15] | MIC50 [16] | MIC50 (Bifidobacterium bifidum [17]) | MIC50 (Eubacterium biforme) | MIC50 (Eubacterium callanderi) | MIC50 [18] | MIC50 [19] | MIC90 (Finegoldia magna) | MIC90 (Parvimonas micra)
> 1020 µg/mL: MIC50 (Desulfovibrio piger) | MIC90 (Desulfovibrio piger) | MIC90 (Fusobacterium sp. [12])
0.5 µg/mL: MIC50 (Finegoldia magna) | MIC50 (Parvimonas micra)
4 µg/mL: MIC50 (Porphyromonas uenonis) | MIC90 (Clostridium bolteae) | MIC90 (Clostridium cadaveris [14]) | MIC90 (Clostridium cocleatum) | MIC90 (Clostridium disporicum) | MIC90 (Clostridium nexile) | MIC90 [15]
8 µg/mL: MIC90 (Porphyromonas uenonis)
2 µg/mL: MIC50 [13] | MIC90 [13]
64 µg/mL: MIC90 [16] | MIC90 (Bifidobacterium bifidum [17]) | MIC90 (Eubacterium biforme) | MIC90 (Eubacterium callanderi) | MIC90 [18] | MIC90 [19]
